From patent US12077503B2, “Substituted cyclic amides and their use as herbicides” (FMC CORPORATION, priority 2015, dated 2024)

Columns and labels:
Assay type in all cases: in vivo
[1] = test system: sedge, umbrella (small-flower umbrella sedge, Cyperus difformis); assay: Test B flooded paddy test; details: Cyperus difformis, 250 g ai/ha, Flood; 0 to 100 scale where 0 is no effect and 100 is complete control; read-out: Sedge, Umbrella plant response rating
Method in brief: (§1)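 Response scored visually against untreated controls, 0 = no effect and 100 = complete control, 13–15 d after treatment in the greenhouse. Compounds added to paddy water held 3 cm above soil surface. Treatment given at 2-leaf stage.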

[2] = test system: barnyardgrass (Echinochloa crus-galli); assay: Test B flooded paddy test; details: Echinochloa crus-galli, 250 g ai/ha, Flood; 0 to 100 scale where 0 is no effect and 100 is complete control; read-out: Barnyardgrass plant response rating
Method in brief: as §1

[3] = test system: rice (Oryra sativa); assay: Test B flooded paddy test; details: Oryza sativa, 250 g ai/ha, Flood; 0 to 100 scale where 0 is no effect and 100 is complete control; read-out: Rice plant response rating
Method in brief: as §1

[4] = test system: ducksalad (Heteranthera limosa); assay: Test B flooded paddy test; details: Heteranthera limosa, 250 g ai/ha, Flood; 0 to 100 scale where 0 is no effect and 100 is complete control; read-out: Ducksalad plant response rating
Method in brief: as §1

[5] = test system: wheat (Triticum aestivum); assay: Test A postemergence; details: Triticum aestivum, post-emergence, 240 h, postemergence; for plant injury at 125 g/ha: 125 g ai/ha, visual injury vs untreated controls after approx. 10 d, 0 = no effect, 100 = complete control, read-out: Wheat plant response rating (0 to 100 scale); for plant injury at 500 g/ha: 500 g ai/ha, 0 to 100 scale, 0 is no effect, 100 is complete control, read-out: Wheat plant response rating
Method in brief: (§2)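 Each rating is a visual injury score from 0 to 100 given about 10 d after treatment, judged against untreated controls kept alongside in the greenhouse. In loam soil–sand blend, seeds got a preemergence directed soil spray, while postemergence plants were 2 to 10 cm tall at spraying.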

[6] = test system: ragweed (common ragweed, Ambrosia elatior); assay: Test A postemergence; details: Ambrosia artemisiifolia, post-emergence, 240 h, postemergence; for pest or weed control at 125 g/ha: 125 g ai/ha, visual injury vs untreated controls after approx. 10 d, 0 = no effect, 100 = complete control, read-out: Ragweed plant response rating (0 to 100 scale); for pest or weed control at 500 g/ha: 500 g ai/ha, 0 to 100 scale, 0 is no effect, 100 is complete control, read-out: Ragweed plant response rating
Method in brief: as §2

[7] = test system: ryegrass, Italian (Italian ryegrass, Lolium multiflorum); assay: Test A postemergence; details: Lolium multiflorum, post-emergence, 240 h, postemergence; for pest or weed control at 125 g/ha: 125 g ai/ha, visual injury vs untreated controls after approx. 10 d, 0 = no effect, 100 = complete control, read-out: Ryegrass, Italian plant response rating (0 to 100 scale); for pest or weed control at 500 g/ha: 500 g ai/ha, 0 to 100 scale, 0 is no effect, 100 is complete control, read-out: Ryegrass, Italian plant response rating
Method in brief: as §2

[8] = test system: barnyardgrass (Echinochloa crus-galli); assay: Test A postemergence; details: Echinochloa crus-galli, post-emergence, 240 h, postemergence; for pest or weed control at 125 g/ha: 125 g ai/ha, visual injury vs untreated controls after approx. 10 d, 0 = no effect, 100 = complete control, read-out: Barnyardgrass plant response rating (0 to 100 scale); for pest or weed control at 500 g/ha: 500 g ai/ha, 0 to 100 scale, 0 is no effect, 100 is complete control, read-out: Barnyardgrass plant response rating
Method in brief: as §2

[9] = test system: pigweed (Amaranthus retroflexus); assay: Test A postemergence; details: Amaranthus retroflexus, post-emergence, 240 h, postemergence; for pest or weed control at 125 g/ha: 125 g ai/ha, visual injury vs untreated controls after approx. 10 d, 0 = no effect, 100 = complete control, read-out: Pigweed plant response rating (0 to 100 scale); for pest or weed control at 500 g/ha: 500 g ai/ha, 0 to 100 scale, 0 is no effect, 100 is complete control, read-out: Pigweed plant response rating
Method in brief: as §2

[10] = test system: Galium (catchweed bedstraw, Galium aparine); assay: Test A postemergence; details: Galium, post-emergence, 240 h, postemergence; for pest or weed control at 125 g/ha: 125 g ai/ha, visual injury vs untreated controls after approx. 10 d, 0 = no effect, 100 = complete control, read-out: Galium plant response rating (0 to 100 scale); for pest or weed control at 500 g/ha: 500 g ai/ha, 0 to 100 scale, 0 is no effect, 100 is complete control, read-out: Galium plant response rating
Method in brief: as §2

[11] = test system: corn (Zea mays); assay: Test A postemergence; details: Zea mays, post-emergence, 240 h, postemergence; for plant injury at 125 g/ha: 125 g ai/ha, visual injury vs untreated controls after approx. 10 d, 0 = no effect, 100 = complete control, read-out: Corn plant response rating (0 to 100 scale); for plant injury at 500 g/ha: 500 g ai/ha, 0 to 100 scale, 0 is no effect, 100 is complete control, read-out: Corn plant response rating
Method in brief: as §2

[12] = test system: blackgrass (Alopecurus myosuroides); assay: Test A postemergence; details: Alopecurus myosuroides, post-emergence, 240 h, postemergence; for pest or weed control at 125 g/ha: 125 g ai/ha, visual injury vs untreated controls after approx. 10 d, 0 = no effect, 100 = complete control, read-out: Blackgrass plant response rating (0 to 100 scale); for pest or weed control at 500 g/ha: 500 g ai/ha, 0 to 100 scale, 0 is no effect, 100 is complete control, read-out: Blackgrass plant response rating
Method in brief: as §2

[13] = test system: giant foxtail (Setaria faberii); assay: Test A postemergence; details: Setaria faberi, post-emergence, 240 h, postemergence; for pest or weed control at 125 g/ha: 125 g ai/ha, visual injury vs untreated controls after approx. 10 d, 0 = no effect, 100 = complete control, read-out: Foxtail, Giant plant response rating (0 to 100 scale); for pest or weed control at 500 g/ha: 500 g ai/ha, 0 to 100 scale, 0 is no effect, 100 is complete control, read-out: Foxtail, Giant plant response rating
Method in brief: as §2

Compound: Cc1ccc([C@H]2CCN(C)C(=O)[C@@H]2C(=O)Nc2cccc(F)c2F)cc1 [Compound 1220]
- pest or weed control at 250 g/ha [1]: 0%
- pest or weed control at 250 g/ha [2]: 70%
- pest or weed control at 250 g/ha [3]: 10%
- pest or weed control at 250 g/ha [4]: 95%
- plant injury at 125 g/ha [5]: 20%
- plant injury at 500 g/ha [5]: 40%
- pest or weed control at 125 g/ha [6]: 20%
- pest or weed control at 500 g/ha [6]: 30%
- pest or weed control at 125 g/ha [7]: 20%
- pest or weed control at 500 g/ha [7]: 30%
- pest or weed control at 125 g/ha [8]: 70%
- pest or weed control at 500 g/ha [8]: 80%
- pest or weed control at 125 g/ha [9]: 20%
- pest or weed control at 500 g/ha [9]: 20%
- pest or weed control at 125 g/ha [10]: 30%
- pest or weed control at 500 g/ha [10]: 40%
- plant injury at 125 g/ha [11]: 30%
- plant injury at 500 g/ha [11]: 70%
- pest or weed control at 125 g/ha [12]: 30%
- pest or weed control at 500 g/ha [12]: 40%
- pest or weed control at 125 g/ha [13]: 80%
- pest or weed control at 500 g/ha [13]: 80%

Compound: CN1CC[C@H](c2ccc(C(F)(F)F)cc2)[C@@H](C(=O)Nc2cccc(F)c2F)C1=O [Compound 1225]
- pest or weed control at 250 g/ha [1]: 0%
- pest or weed control at 250 g/ha [2]: 80%
- pest or weed control at 250 g/ha [3]: 20%
- pest or weed control at 250 g/ha [4]: 100%
- plant injury at 125 g/ha [5]: 30%
- plant injury at 500 g/ha [5]: 70%
- pest or weed control at 125 g/ha [6]: 40%
- pest or weed control at 500 g/ha [6]: 50%
- pest or weed control at 125 g/ha [7]: 30%
- pest or weed control at 500 g/ha [7]: 30%
- pest or weed control at 125 g/ha [8]: 90%
- pest or weed control at 500 g/ha [8]: 90%
- pest or weed control at 125 g/ha [9]: 30%
- pest or weed control at 500 g/ha [9]: 40%
- pest or weed control at 125 g/ha [10]: 50%
- pest or weed control at 500 g/ha [10]: 70%
- plant injury at 125 g/ha [11]: 30%
- plant injury at 500 g/ha [11]: 90%
- pest or weed control at 125 g/ha [12]: 30%
- pest or weed control at 500 g/ha [12]: 40%
- pest or weed control at 125 g/ha [13]: 90%
- pest or weed control at 500 g/ha [13]: 90%

Compound: CSc1ccccc1NC(=O)[C@H]1C(=O)N(C)C[C@@H]1c1cccc(C)c1 [Compound 1232]
- pest or weed control at 250 g/ha [1]: 0%
- pest or weed control at 250 g/ha [2]: 55%
- pest or weed control at 250 g/ha [3]: 0%
- pest or weed control at 250 g/ha [4]: 95%
- plant injury at 125 g/ha [5]: 0%
- pest or weed control at 125 g/ha [6]: 0%
- pest or weed control at 500 g/ha [6]: 50%
- pest or weed control at 125 g/ha [7]: 30%
- pest or weed control at 500 g/ha [7]: 60%
- pest or weed control at 125 g/ha [8]: 80%
- pest or weed control at 500 g/ha [8]: 80%
- pest or weed control at 125 g/ha [9]: 0%
- pest or weed control at 500 g/ha [9]: 40%
- pest or weed control at 125 g/ha [10]: 20%
- pest or weed control at 500 g/ha [10]: 60%
- plant injury at 125 g/ha [11]: 0%
- plant injury at 500 g/ha [11]: 70%
- pest or weed control at 125 g/ha [12]: 0%
- pest or weed control at 500 g/ha [12]: 40%
- pest or weed control at 125 g/ha [13]: 80%
- pest or weed control at 500 g/ha [13]: 90%
